According to paper PMC8359378 (British Journal of Clinical Pharmacology, 2021):
Marks after values point to notes of the source that are not given here.

System: healthy subjects
Test: safety and tolerability
Type: in vivo, human
[1] = Part A, single dose 1 mg, fasted
[2] = Part A, single dose 5 mg, fasted
[3] = Part A, single dose 20 mg, fasted
[4] = Part A, single dose 80 mg, fasted
[5] = Part A, single dose 150 mg, fasted
[6] = Part A, single dose 300 mg, fasted
[7] = Part B, 80 mg QD for 14 days, fed

## Nc1ccc(-c2nc([C@H]3CCc4cc(-c5cc(Cl)ccc5-n5cnnn5)cc(=O)n43)c(F)[nH]2)c(F)n1 [ONO‐7684]
Part A, 5 mg group
  treatment‐related TEAE of lethargy (mild), subjects: 16.7%
Part A, 300 mg group
  treatment‐related TEAE of headache (moderate), subjects: 16.7%
[1]
  Abdominal pain upper TEAE, subjects: 0 n (%)
  All TEAEs, subjects: 0 n (%)
  Dizziness TEAE, subjects: 0 n (%)
  Gonorrhoea TEAE, subjects: 0 n (%)
  Headache TEAE, subjects: 0 n (%)
  Lethargy TEAE, subjects: 0 n (%)
  Nasopharyngitis TEAE, subjects: 0 n (%)
  Nausea TEAE, subjects: 0 n (%)
  Pain TEAE, subjects: 0 n (%)
  Skin laceration TEAE, subjects: 0 n (%)
  Thrombocytopenia TEAE, subjects: 0 n (%)
[2]
  Abdominal pain upper TEAE, subjects: 0 n (%)
  All TEAEs, subjects: 1 (16.7) n (%)
  Dizziness TEAE, subjects: 0 n (%)
  Gonorrhoea TEAE, subjects: 0 n (%)
  Headache TEAE, subjects: 0 n (%)
  Lethargy TEAE, subjects: 1 (16.7)^b n (%)
  Nasopharyngitis TEAE, subjects: 1 (16.7) n (%)
  Nausea TEAE, subjects: 0 n (%)
  Pain TEAE, subjects: 0 n (%)
  Skin laceration TEAE, subjects: 0 n (%)
  Thrombocytopenia TEAE, subjects: 0 n (%)
[3]
  Abdominal pain upper TEAE, subjects: 1 (16.7) n (%)
  All TEAEs, subjects: 1 (16.7) n (%)
  Dizziness TEAE, subjects: 1 (16.7) n (%)
  Gonorrhoea TEAE, subjects: 0 n (%)
  Headache TEAE, subjects: 0 n (%)
  Lethargy TEAE, subjects: 0 n (%)
  Nasopharyngitis TEAE, subjects: 0 n (%)
  Nausea TEAE, subjects: 1 (16.7) n (%)
  Pain TEAE, subjects: 0 n (%)
  Skin laceration TEAE, subjects: 0 n (%)
  Thrombocytopenia TEAE, subjects: 0 n (%)
[4]
  Abdominal pain upper TEAE, subjects: 0 n (%)
  All TEAEs, subjects: 2 (33.3) n (%)
  Dizziness TEAE, subjects: 0 n (%)
  Gonorrhoea TEAE, subjects: 1 (16.7) n (%)
  Headache TEAE, subjects: 1 (16.7) n (%)
  Lethargy TEAE, subjects: 0 n (%)
  Nasopharyngitis TEAE, subjects: 0 n (%)
  Nausea TEAE, subjects: 0 n (%)
  Pain TEAE, subjects: 0 n (%)
  Skin laceration TEAE, subjects: 0 n (%)
  Thrombocytopenia TEAE, subjects: 0 n (%)
Part A, single dose 80 mg, fed
  Abdominal pain upper TEAE, subjects: 0 n (%)
  All TEAEs, subjects: 1 (16.7) n (%)
  Dizziness TEAE, subjects: 0 n (%)
  Gonorrhoea TEAE, subjects: 0 n (%)
  Headache TEAE, subjects: 1 (16.7) n (%)
  Lethargy TEAE, subjects: 0 n (%)
  Nasopharyngitis TEAE, subjects: 0 n (%)
  Nausea TEAE, subjects: 0 n (%)
  Pain TEAE, subjects: 0 n (%)
  Skin laceration TEAE, subjects: 0 n (%)
  Thrombocytopenia TEAE, subjects: 0 n (%)
[5]
  Abdominal pain upper TEAE, subjects: 0 n (%)
  All TEAEs, subjects: 0 n (%)
  Dizziness TEAE, subjects: 0 n (%)
  Gonorrhoea TEAE, subjects: 0 n (%)
  Headache TEAE, subjects: 0 n (%)
  Lethargy TEAE, subjects: 0 n (%)
  Nasopharyngitis TEAE, subjects: 0 n (%)
  Nausea TEAE, subjects: 0 n (%)
  Pain TEAE, subjects: 0 n (%)
  Skin laceration TEAE, subjects: 0 n (%)
  Thrombocytopenia TEAE, subjects: 0 n (%)
[6]
  Abdominal pain upper TEAE, subjects: 0 n (%)
  All TEAEs, subjects: 2 (33.3) n (%)
  Dizziness TEAE, subjects: 0 n (%)
  Gonorrhoea TEAE, subjects: 0 n (%)
  Headache TEAE, subjects: 2 (33.3)^a n (%)
  Lethargy TEAE, subjects: 0 n (%)
  Nasopharyngitis TEAE, subjects: 0 n (%)
  Nausea TEAE, subjects: 0 n (%)
  Pain TEAE, subjects: 0 n (%)
  Skin laceration TEAE, subjects: 0 n (%)
  Thrombocytopenia TEAE, subjects: 1 (16.7) n (%)
[7]
  All TEAEs, subjects: 2 (33.3) n (%)
  Bleeding time prolonged TEAE, subjects: 0 n (%)
  Dizziness TEAE, subjects: 1 (16.7) n (%)
